Measured values reported in patent US12492173B2, “Herbicidal substituted N-tetrazolyl aryl carboxamides” (Bayer Aktiengesellschaft, priority 2019, dated 2025).

Legend:
Format in all cases: in vivo
[1] = tested on: Setaria viridis; test: Post-emergence herbicidal action, SETVI; set-up: key: % herbicidal action vs untreated; 100 = plants died, 0 = like control
Summary of the method: (§1)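 Percent herbicidal effect was rated visually about 3 weeks after treatment, relative to untreated plants (0% = like control, 100% = dead). Compounds, formulated as WP or EC, went on as aqueous spray (600–800 l/ha, 0.2% wetting agent) to one-leaf-stage plants 2–3 weeks post-sowing in sandy loam.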

[2] = tested on: Lolium rigidum; test: Pre-emergence herbicidal action, LOLRI; conditions: dosage 320 g/ha, scored visually after 3 weeks vs untreated controls (100% = plants have died)
Description: (§2) 1. Pre-Emergence Herbicidal Action Against Harmful Plants Seeds of monocotyledonous and dicotyledonous weed plants and crop plants are laid out in sandy loam soil in wood-fiber pots and covered with soil. The compounds of the invention, formulated in the form of wettable powders (WP) or as emulsion concentrates (EC), are then applied to the surface of the covering soil in the form of an aqueous suspension or emulsion at a water application rate equating to 600 to 800 l/ha, with addition of 0.2% wetting agent. After the treatment, the pots are placed in a greenhouse and kept under good growth conditions for the trial plants. The damage to the test plants is scored visually after a test period of 3 weeks by comparison with untreated controls (herbicidal activity in percent (%): 100% activity=the plants have died, 0% activity=like control plants). […] The tables below illustrate, in an exemplary manner, the […] herbicidal action of the compounds according to the invention, the herbicidal activity being stated in percent. [table] In the experiments that follow, herbicidal action of numerous inventive compounds and the known compounds that are structurally closest from D1 (WO 2012/028579 A1) and D2 (WO 2018/202535 A1) were compared under the above-specified conditions by the pre-emergence and post-emergence method. The example numbers given in the tables relate to the compounds disclosed in the respective documents. In addition to the compounds disclosed in D1 and D2, the following compounds V-1 to V-14 that are encompassed by D1 or D2 but are not compounds specified therein were used in the comparative experiments: • V-1: 2-(methylsulfanyl)-3-(methylsulfinyl)-N-(1-methyl-1H-tetrazol-5-yl)-4-(trifluoromethyl)benzamide • V-2: 2-(methylsulfanyl)-3-(methylsulfonyl)-N-(1-methyl-1H-tetrazol-5-yl)-4-(trifluoromethyl)benzamide • V-3: 2,3-bis(ethylsulfanyl)-N-(1-methyl-1H-tetrazol-5-yl)-4-(trifluoromethyl)benzamide • V-4: 2-chloro-3-(ethylsulfanyl)-N-(1-methyl-1H-tetrazol-5-yl)-4-(trifluoromethyl)benzamide • V-5: 2-chloro-4-iodo-3-(methylsulfanyl)-N-(1-methyl-1H-tetrazol-5-yl)benzamide • V-6: 2-chloro-4-iodo-3-(methylsulfinyl)-N-(1-methyl-1H-tetrazol-5-yl)benzamide • V-7: 2-chloro-4-iodo-3-(methylsulfonyl)-N-(1-methyl-1H-tetrazol-5-yl)benzamide • V-8: 2-bromo-3-(methylsulfanyl)-N-(1-methyl-1H-tetrazol-5-yl)-4-(trifluoromethyl)benzamide • V-9: 2-bromo-3-(methylsulfinyl)-N-(1-methyl-1H-tetrazol-5-yl)-4-(trifluoromethyl)benzamide • V-10: 2-bromo-3-(methylsulfonyl)-N-(1-methyl-1H-tetrazol-5-yl)-4-(trifluoromethyl)benzamide • V-11: 2-bromo-3-(ethylsulfanyl)-N-(1-methyl-1H-tetrazol-5-yl)-4-(trifluoromethyl)benzamide • V-12: 2-bromo-3-(ethylsulfinyl)-N-(1-methyl-1H-tetrazol-5-yl)-4-(trifluoromethyl)benzamide • V-13: 2-bromo-3-(ethylsulfonyl)-N-(1-methyl-1-1H-tetrazol-5-yl)-4-(trifluoromethyl)benzamide • V-14: 2-cyclopropyl-3-(ethylsulfanyl)-N-(1-methyl-1H-tetrazol-5-yl)-4-(trifluoromethyl)benzamide Herbicidal Pre-Emergence Action: […]

[3] = tested on: Echinochloa crus-galli; test: Post-emergence herbicidal action, ECHCG; set-up: key: % herbicidal action vs untreated; 100 = plants died, 0 = like control
Summary of the method: as §1

[4] = tested on: Polygonum convolvulus; test: Pre-emergence herbicidal action, POLCO; conditions: for herbicidal activity POLCO: dosage 320 g/ha, scored visually after 3 weeks vs untreated controls (100% = plants have died)
Summary of the method: (§3)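 Pre-emergence soil spray over sandy loam-covered seeds; greenhouse 3 weeks; % visual damage (0% = control, 100% = dead).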

[5] = tested on: Echinochloa crus-galli; test: Pre-emergence herbicidal action, ECHCG; set-up: key to Herbicidal action against ECHCG: % activity: 100 = plants have died, 0 = like control plants; conditions: for herbicidal activity ECHCG: dosage 320 g/ha, scored visually after 3 weeks vs untreated controls (100% = plants have died); for Herbicidal action against ECHCG: comparative experiment, 20 g of a.i./ha
Summary of the method: as §3

[6] = tested on: Matricaria inodora; test: Pre-emergence herbicidal action, MATIN; set-up: key to Herbicidal action against MATIN: % activity: 100 = plants have died, 0 = like control plants; conditions: for herbicidal activity MATIN: dosage 320 g/ha, scored visually after 3 weeks vs untreated controls (100% = plants have died)
Summary of the method: as §3

[7] = tested on: Lolium multiflorum; test: Pre-emergence herbicidal action, LOLMU; conditions: dosage 320 g/ha, scored visually after 3 weeks vs untreated controls (100% = plants have died)
Description: as §2

[8] = comparative experiment, 20 g of a.i./ha

Compound | herbicidal action SETVI ([1]; Dosage 80 g/ha) | herbicidal activity LOLRI [2] [%] | herbicidal action ECHCG ([3]; Dosage 80 g/ha) | herbicidal activity POLCO [4] [%] | herbicidal activity ECHCG [5] [%] | herbicidal activity MATIN [6] [%] | herbicidal action SETVI ([1]; post-emergence, dosage 80 g/ha) [%] | herbicidal action ECHCG ([3]; post-emergence, dosage 80 g/ha) [%] | Herbicidal action against ECHCG [5] | Herbicidal action against MATIN [6, 8] | Herbicidal action against POLCO [4, 8] | herbicidal activity LOLMU [7] [%]
Cn1nnnc1NC(=O)c1ccc(C(F)(F)F)c(CS(=O)(=O)CC2CC2)c1Cl [Example 1-316] | 90 | 90 | 100 | 100 | 100 | 100 | – | – | – | – | – | –
CSCc1c(I)ccc(C(=O)Nc2nnnn2C)c1Cl [Example 1-362] | – | 80 | – | – | 100 | 100 | 90 | 100 | 80 | 70 | – | –
Cn1nnnc1NC(=O)c1ccc(I)c(CS(C)(=O)=O)c1Cl [Example 1-364] | 100 | 80 | 100 | 100 | 100 | 100 | – | – | 90 | – | 90 | –
CCn1nnnc1NC(=O)c1ccc(C(F)(F)F)c(C[S+]([O-])CC)c1Cl (stereo not drawn) [Example 2-300] | – | 100 | – | 100 | 100 | 100 | 100 | 100 | – | – | – | –
CCn1nnnc1NC(=O)c1ccc(C(F)(F)F)c(CSCCOC)c1Cl [Example 2-305] | – | 100 | – | 100 | 100 | 100 | 100 | 100 | – | – | – | –
CCn1nnnc1NC(=O)c1ccc(C(F)(F)F)c(CSCC(F)(F)F)c1Cl [Example 2-311] | 100 | 90 | 100 | 80 | 100 | 100 | – | – | – | – | – | –
CCn1nnnc1NC(=O)c1ccc(I)c(C[S+](C)[O-])c1Cl (stereo not drawn) [Example 2-363] | 90 | 100 | 100 | – | 100 | 100 | – | – | – | – | – | –
C=CCSCc1c(C(F)(F)F)ccc(C(=O)Nc2nnnn2CCC)c1Cl [Example 3-308] | 100 | 80 | 100 | – | 100 | 100 | – | – | – | – | – | –
CCCn1nnnc1NC(=O)c1ccc(C(F)(F)F)c(CSCC2CC2)c1Cl [Example 3-314] | – | 90 | – | – | 90 | 100 | 100 | 100 | – | – | – | –
CCCn1nnnc1NC(=O)c1ccc(C(F)F)c(CSCC)c1Cl [Example 3-323] | 100 | – | 100 | 100 | 100 | 100 | – | – | – | – | – | 100
CCCn1nnnc1NC(=O)c1ccc(C(F)(F)F)c(C[S+]([O-])CC)c1Br (stereo not drawn) [Example 3-384] | 100 | – | 90 | 80 | 100 | 100 | – | – | – | – | – | 90
